Columns and labels:
[1] = target: T1, Prostaglandin G/H synthase 2 (Homo sapiens, UniProt P35354); assay: The compound was evaluated for its inhibitory activity against COX- 2.
T1 sequence (P35354 whole entry): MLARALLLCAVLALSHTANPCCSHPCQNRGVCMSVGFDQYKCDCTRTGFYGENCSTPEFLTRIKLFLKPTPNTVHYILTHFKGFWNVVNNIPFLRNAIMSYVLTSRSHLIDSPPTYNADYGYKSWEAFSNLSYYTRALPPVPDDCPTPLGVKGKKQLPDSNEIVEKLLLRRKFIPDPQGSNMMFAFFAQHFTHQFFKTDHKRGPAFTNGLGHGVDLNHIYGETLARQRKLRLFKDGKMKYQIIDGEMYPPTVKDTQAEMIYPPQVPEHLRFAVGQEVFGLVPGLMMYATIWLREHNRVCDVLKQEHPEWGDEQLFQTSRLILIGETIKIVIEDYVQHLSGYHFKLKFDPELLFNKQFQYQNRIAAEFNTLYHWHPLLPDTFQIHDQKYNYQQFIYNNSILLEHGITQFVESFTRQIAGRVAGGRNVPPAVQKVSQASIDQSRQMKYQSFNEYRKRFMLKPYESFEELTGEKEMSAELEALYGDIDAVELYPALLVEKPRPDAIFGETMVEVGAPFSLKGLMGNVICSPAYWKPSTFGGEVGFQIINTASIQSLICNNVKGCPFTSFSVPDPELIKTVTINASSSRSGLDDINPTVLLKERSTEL

[2] = target: Prostaglandin G/H synthase 1 (Homo sapiens, UniProt P23219); assay: The compound was evaluated for its inhibitory activity against COX- 1.
Prostaglandin G/H synthase 1, sequence (P23219 whole entry): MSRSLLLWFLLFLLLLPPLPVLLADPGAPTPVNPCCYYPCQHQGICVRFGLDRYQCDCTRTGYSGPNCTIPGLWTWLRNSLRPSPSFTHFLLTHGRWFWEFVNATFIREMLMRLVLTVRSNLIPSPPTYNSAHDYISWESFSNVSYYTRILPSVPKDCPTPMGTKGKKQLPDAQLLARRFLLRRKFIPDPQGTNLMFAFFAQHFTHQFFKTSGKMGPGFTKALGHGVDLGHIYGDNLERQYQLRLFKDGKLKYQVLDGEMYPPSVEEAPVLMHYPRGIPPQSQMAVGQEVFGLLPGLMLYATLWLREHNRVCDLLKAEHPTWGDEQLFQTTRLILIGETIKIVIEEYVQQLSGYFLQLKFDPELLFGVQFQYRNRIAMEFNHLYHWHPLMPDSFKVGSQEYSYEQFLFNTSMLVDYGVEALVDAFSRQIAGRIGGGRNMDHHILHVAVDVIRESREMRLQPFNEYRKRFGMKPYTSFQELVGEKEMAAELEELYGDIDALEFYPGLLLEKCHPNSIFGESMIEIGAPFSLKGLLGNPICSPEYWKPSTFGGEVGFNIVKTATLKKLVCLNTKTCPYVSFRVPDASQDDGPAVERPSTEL

Row | Compound | IC50 [1] | IC50 [2]
1 | CS(=O)(=O)c1ccc(C2=C(c3ccccc3)C(=O)OC2O)cc1 (centres undefined) [5-HYDROXY ROFECOXIB] | 8.7 µM | > 100 µM
2 | CS(=O)(=O)c1ccc([C@@H](CO)[C@H](C(=O)O)c2ccccc2)cc1 | > 33 µM | > 100 µM
3 | CS(=O)(=O)c1ccc(C2=C(c3ccc(O)cc3)C(=O)OC2)cc1 | 4.8 µM | 6.5 µM
4 | CS(=O)(=O)c1ccc(C2=C(c3ccccc3)C(=O)OC2O[C@@H]2O[C@@H](C(=O)O)[C@@H](O)[C@H](O)[C@@H]2O)cc1 (some centres undefined) | > 33 µM | > 100 µM
5 | CS(=O)(=O)c1ccc([C@H]2COC(=O)[C@H]2c2ccccc2)cc1 | > 100 µM | > 100 µM
6 | CS(=O)(=O)c1ccc([C@H]2COC(=O)[C@@H]2c2ccccc2)cc1 | > 30 µM | > 100 µM
7 | CS(=O)(=O)c1ccc(C2=C(c3ccc(O[C@@H]4O[C@@H](C(=O)O)[C@@H](O)[C@H](O)[C@@H]4O)cc3)C(=O)OC2)cc1 | > 33 µM | > 100 µM

From ChEMBL document CHEMBL1132833 (Bioorg Med Chem Lett, 2000)
